# Data: patent US20130045933A1, “ALOE-EMODIN DERIVATIVES AND USE THEREOF FOR THE TREATMENT OF CANCER” (RAMOT AT TEL-AVIV UNIVERSITY LTD., priority 2010, published 2013)
# Read-outs that look alike come from different tables or passages of the source.
# Legend:
# OVCAR-3 = assay: Cytotoxicity IC50 experiments, XTT kit, 24 h incubation; assay type: cell-based; conditions: for IC50: 24 h incubation, XTT, read-out: IC-50 values after 24 h incubation, OVCAR-3; for viability at 20 µM: OVCAR-3, 20 μM, 24 h, read-out: cell viability
# Procedure: (§1) Aloe-emodin was purchased from Molekula.
# (§2) The cells were incubated for 24 h.
# MCF-7 = assay: as above; conditions: Homo sapiens, MCF7, 24 h, read-out: cell viability
# Procedure: as §1, §2
# NAR cells = assay: as above; conditions: for IC50: DOX resistant, P-gp overexpressing; for viability at 100 µM: read-out: cell viability
# Procedure: as §1, §2
# Finally, AEGs 13-16 were evaluated against DOX resistant ovarian cancer NAR cells in which resistance is conferred by overexpression of P-gp efflux pumps^[36]
# [1] = tested on: Molt-4 (human T cell leukemia); assay: Cytotoxicity assay of compounds 11 and 12 (XTT, % cytotoxicity)
# Procedure: (§3) The respective cell type at 1×10^4 cells/well was incubated for 24 hours in 96-well plates and cell viability was determined using the 2,3-bis(2-methoxy-4-nitro-5-sulphophenyl)-2H-tetrazolium-5-carboxanilide (XTT) kit (Biological Industries, Israel). […] Optical density is directly proportional to the number of living cells in culture. Cytotoxicity (%) was calculated in the following way: [(absorbance of control cells−absorbance of drug-treated cells)/absorbance of control cells]×100. Results shown are averages of 3 repeats ±SE.
# [2] = cited from earlier work
# MOLT-4 = assay: Cytotoxicity IC50 experiments, XTT kit, 24 h incubation; conditions: for IC50: read-out: IC-50 values after 24 h incubation, MOLT-4, 24 h incubation, XTT
# Procedure: The cell lines used in this study were as follows: acute lymphoblastic leukemia (Molt-4), ovarian carcinoma (OVCAR3, NAR), breast adenocarcinomas (MCF7), B16 (murine melanoma), HCT 116 (human colon adenocarcinoma), and MCA 105 (murine fibrosarcoma), that were purchased from ATCC (Manassas, Va.). All cell lines except Molt-4 were grown in Dulbecco's modified Eagle's medium supplemented with 10% FBS, 1 mM L-glutamine, 100 U/ml penicillin, 100 μg/ml streptomycin. Molt-4 cells were grown in RPMI-1640 with the same supplements.
# Cells (5×10^3/well) were plated into 96-well microtiter plates and were allowed to adhere (except for the leukemic cells) before treatment. After 24 hours, the plates were added with 5 μL of AEGs or AE or DOX solutions at different concentrations. The cells were incubated for 24 h. Cell viability was determined using an XTT kit protocol (Biological Industries). Optical density (OD) was read at 490 nm with a VERSAmax microplate ELISA reader (Molecular Devices, Sunnyvale, Calif., USA). IC50 values were determined as the concentrations in which the OD value of the tested compound reached 50% of the OD value of the control containing un-treated cells. All experiments were performed in triplicates and repeated three times. All cell lines were grown in Dulbecco's modified Eagle's medium (or RPMI-1640 for Molt-4 cells) supplemented with 10% FBS, 1 mM L-glutamine, 100 U/ml penicillin, 100 μg/ml streptomycin. Cells were maintained in a humidified chamber of 95% air 5% CO2 at 37° C.
# MCF-7 cells = assay: Light microscopy study of treated cells; assay type: cell-based; conditions: MCF-7, 20 μM, 24 hours, x400
# Procedure: FIG. 9: Light microscopy (x400) pictures of MCF-7 cells: Cell cultures were incubated for 24 hours. (a) Untreated control cells (b) AE 20 μM (c), Dox 20 μM, (d) AEG 13 20 μM.
# Cells micrographs were obtained using a light microscope (Olympus IX50-S8F2 inverted phase microscope) at x400 magnification.
# [3] = tested on: supercoiled plasmid PBR322; assay: Supercoiled plasmid DNA unwinding gel experiment (DNA intercalation); assay type: binding
# Procedure: Eppendorf tubes containing 3 μL supercoiled plasmid PBR322 (0.167 μg/ml), 14 μL tris-HCl-di-natrium-EDTA (TE X1) and 5 μL, AE, or one of the AEGs 1-4 or doxorubicin, at different concentrations were incubated for 15 min at 37° C. The samples were then added with 2 μl of loading buffer, and loaded on a 1% agarose gel in tris-HCl-boric-acid-di-natrium-EDTA (TBE X1). Samples were on the gel run for 15 min at 50 V and an additional 225 min at 70V. The gels were then immersed in a 0.5 mg/ml solution of ethidium bromide shaken for 20 min., washed with DDW for […]. DNA was visualized by UV illumination.
# The DNA intercalation property of AEGs 13-16 was studied by applying the robust supercoiled plasmid DNA unwinding gel experiments protocol.^[23,37,38] Briefly, samples containing one of the AEGs 13-16, DOX or AE were pre-incubated with PBR322DNA plasmid, loaded on a 1% agarose gel, run for 4 hours at 70 volts and stained with ethidium bromide. […] At 200 μM.
# DOX resistant NAR cells = assay: Fluorescent confocal microscopy study of cell permeability; assay type: cell-based; conditions: 5 μM, two hour incubation
# Procedure: Cells (1×10^5/well) were plated into 24-well microtiter plates and incubated over coverslips for 24 hours. The cells were then added with one of the AEGs or DOX or AE at a total sample concentration of 5 μM. After 2 hours of incubation, the cells were washed three times, using PBS×1 (0.5 ml per well), and incubated with paraformaldehyde (3.7% in PBS 0.5 ml per well). After 15 min at ambient temperature, the cells were washed twice using PBS×1 0.5 ml per well. Cells were shaken at 50 rpm for 5 min after each wash. The plasma membrane of the fixated cells was stained by incubation of the samples with 300 μl of DiIC18(5)-DS ([…]) at 4° C. After 20 min, the cells were washed twice using PBS×1 0.5 ml per well. Cells were shaken at 50 rpm for 5 min after each wash. Finally, the samples were placed on a microscope slide and fixed using 10 μl of mounting. The slides were observed using an Andor Revolution Imaging System equipped with a Yokogawa CSU-X1 Spinning Disk Unit and an iXon 897 back-illuminated EMCCD camera, and mounted on a custom made Olympus IX-Upright microscope at Ex/Em=488/525 nm for DOX and AE glycoside I and Ex/Em=640/685 nm for DiIC18 (5)-DS.
# A possible explanation for the potency of the synthetic AEGs against. DOX resistant cells was provided using fluorescent confocal microscopy (FIG. 11). […]
# B16 (murine melanoma) = assay: Cytotoxicity assay of compounds 11 and 12 (XTT, % cytotoxicity)
# Procedure: as §3
# [4] = tested on: HCT 116 (human colon adenocarcinoma); assay: as above
# Procedure: as §3
# [5] = tested on: MCA 105 (murine fibrosarcoma); assay: as above
# Procedure: as §3
# [6] = 24 h, read-out: IC-50 values after 24 h incubation, NAR, 24 h incubation, XTT
# [7] = read-out: IC-50 values after 24 h incubation, NAR, 24 h incubation, XTT
# [8] = B16, 24 hours of incubation, E-1 at the highest concentration
# [9] = HCT116, 24 hours of incubation, E-1 at the highest concentration
# [10] = MCA 105, 24 hours of incubation, E-1 at the highest concentration
# [11] = Molt-4, 24 hours of incubation, E-1 at the highest concentration
compound,measurement,setting,value
"O=C1c2cccc(O)c2C(=O)c2c(O)cc(CO)cc21 [AE, Aloe-emodin]",IC50,"OVCAR-3; Homo sapiens, OVCAR-3, 24 h",> 20 µM
same,viability at 20 µM,MCF-7,77%
same,IC50,NAR cells; [6],> 100 µM
same,viability at 100 µM,NAR cells; 24 h,78%
same,toxicities (cytotoxicity),[1]; human,about 20%
same,solubility in water and in physiological solutions,[2],hardly soluble
same,cell viability,"MOLT-4; MOLT-4, 20 μM, 24 h",100%
same,IC50,MOLT-4,> 20 µM
CC1O[C@@H](OCc2cc(O)c3c(c2)C(=O)c2cccc(O)c2C3=O)CC(N)[C@H]1O (some centres unmarked) [AEG 13],IC50,OVCAR-3,5.2 ± 0.1 µM
same,improvement in cytotoxic potency compared to DOX and AE,NAR cells,at least two orders of magnitude
same,IC50,NAR cells; [7],8.6 ± 0.6 µM
same,cell numbers and cell morphology by light microscopy,MCF-7 cells,a very small number of highly damaged cells was observed
same,DNA shift effect,[3]; 200 μM,most significant effect
same,cellular accumulation (cell permeability),DOX resistant NAR cells,intracellular accumulation
same,IC50,MOLT-4,5.8 ± 1.3 µM
CC1O[C@H](OCc2cc(O)c3c(c2)C(=O)c2cccc(O)c2C3=O)CC(N)[C@H]1O (some centres unmarked) [AEG 14],IC50,OVCAR-3,6.4 ± 0.2 µM
same,viability at 100 µM,NAR cells; 24 h,65%
same,IC50,NAR cells; [7],> 100 µM
same,DNA shift effect,[3]; 200 μM,weak effect
same,IC50,MOLT-4,7.6 ± 1.6 µM
CC1O[C@@H](OCc2cc(O)c3c(c2)C(=O)c2cccc(O)c2C3=O)CC(N)[C@H]1O (some centres unmarked) [AEG 15],IC50,OVCAR-3,15.7 ± 0.8 µM
same,IC50,NAR cells; [7],18 ± 1.3 µM
same,IC50,MOLT-4,5.4 ± 0.4 µM
CC1O[C@H](OCc2cc(O)c3c(c2)C(=O)c2cccc(O)c2C3=O)CC(N)[C@H]1O (some centres unmarked) [AEG 16],IC50,OVCAR-3,> 20 µM
same,viability at 20 µM,OVCAR-3; Homo sapiens,60%
same,viability at 20 µM,MCF-7,83%
same,IC50,NAR cells; [7],28.3 ± 2.3 µM
same,IC50,MOLT-4,12.8 ± 0.7 µM
"COc1cccc2c1C(=O)c1c(O)c3c(c(O)c1C2=O)C[C@@](O)(C(=O)CO)C[C@@H]3O[C@H]1C[C@H](N)[C@H](O)[C@H](C)O1 [DOX, doxorubicin, reference compound]",IC50,"OVCAR-3; Homo sapiens, OVCAR-3, 24 h",> 20 µM
same,viability at 20 µM,OVCAR-3; Homo sapiens,61%
same,viability at 20 µM,MCF-7,83%
same,IC50,NAR cells; [6],> 100 µM
same,cell viability,"NAR cells; NAR, 100 μM, 24 h",not affected at all
same,"cytotoxicity, general outcome (FIG. 4B)",B16 (murine melanoma),much more effective than the other compounds
same,"cytotoxicity, general outcome (FIG. 4C)",[4],much more effective than the other compounds
same,"cytotoxicity, general outcome (FIG. 4D)",[5],much more effective than the other compounds
same,"cytotoxicity, general outcome (FIG. 4A)",[1],much more effective than the other compounds
same,toxicities (cytotoxicity),[1]; human,about 20%
same,cell numbers and cell morphology by light microscopy,MCF-7 cells,became more spherical in shape and smaller in size
same,DNA shift effect,[3]; 20 μM,still significant
same,DNA shift effect,[3]; 200 μM,intense effect
same,cellular accumulation (cell permeability),DOX resistant NAR cells,accumulated mainly in the plasma membrane
same,IC50,MOLT-4,0.2 ± 0.07 µM
"NC1CC(OCc2cc(O)c3c(c2)C(=O)c2cccc(O)c2C3=O)OCC1O [E-1, Aloe-Emodin connected through C-7 to alpha 2-deoxy-3-deoxy-3-amino-L-xylopyranose]","cytotoxicity, general outcome (FIG. 4B)",B16 (murine melanoma); [8],much more effective than Alo
same,"cytotoxicity, general outcome (FIG. 4C)",[4]; [9],much more effective than Alo
same,"cytotoxicity, general outcome (FIG. 4D)",[5]; [10],much more effective than Alo
same,cytotoxicity,"[1]; Molt-4, 100 μM, 4 hours of incubation",about 90%
same,"cytotoxicity, general outcome (FIG. 4A)",[1]; [11],much more effective than Alo
"NC1CC(OCc2cc(O)c3c(c2)C(=O)c2cccc(O)c2C3=O)OCC1O [E-2, Aloe-Emodin connected through C-7 to beta 2-deoxy-3-deoxy-3-amino-L-xylopyranose]","cytotoxicity, general outcome (FIG. 4B)",B16 (murine melanoma); [8],much weaker effect
same,"cytotoxicity, general outcome (FIG. 4C)",[4]; [9],much weaker effect
same,"cytotoxicity, general outcome (FIG. 4D)",[5]; [10],much weaker effect
same,"cytotoxicity, general outcome (FIG. 4A)",[1]; [11],much weaker effect
same,toxicities (cytotoxicity),"[1]; Molt-4, up to 8 hours of incubation",about 20%
